System: Human prostate carcinoma DU145 cells
Experiment: In vivo antitumor efficacy of nemorubicin in combination with bevacizumab (tumor growth delay)
Set-up: species or system Balb Nu/Nu, male mice (athymic mice)
Details: DU145 s.c. in athymic mice; for Time to reach 1 g: advanced tumors, bevacizumab 20 mg/kg i.p. day 9, 13, 17, 21, 25, 29, nemorubicin 0.065 mg/kg i.v. day 9, 16, 23; for T-C: delay vs control to reach 1 g, bevacizumab 20 mg/kg i.p., nemorubicin 0.065 mg/kg i.v. q7dx3
Method: Materials and Methods: Balb Nu/Nu, male mice (athymic mice from Harlan, Italy) were maintained in cages with paper filter covers, food and bedding sterilized and water acidified. Human prostate carcinoma DU145 cells (from American Type Culture Collection) were implanted subcutaneously in athymic mice (2.5×10^6/cells mice). […] Drug treatments were performed on advanced tumors (when the tumors were palpable). Nemorubicin and bevacizumab were prepared immediately before use ad administered to mice in a volume of 10 ml/kg. Nemorubicin was administered as hydrochloride salt intravenously at a dose of 0.065 mg/kg and treatments were repeated weekly for 3 weeks. Bevacizumab was administered intraperitoneally at a dose of 20 mg/kg on the days 9, 13, 17, 21, 25 and 29 from the day of cell injection. When both compounds were administered on the same day, bevacizumab was administered intraperitoneally immediately before the intravenous injection of nemorubicin. Tumor growth and net body weight were evaluated every 3 days. Tumor growth was assessed by caliper. The two diameters were recorded, and the tumor weight was calculated according to the following formula: length (mm)×width^2 (mm)/2. The effect of the antitumor treatment was determined as the delay in the onset of an exponential growth of tumors [see for reference, Anti Cancer Drugs 7: 437-60, 1996]. This delay (T-C value) was defined as the difference of the time (in days) required for the treatment group (T) and the control group (C) tumors to reach a predetermined size (e.g. 1 g). Toxicity was evaluated on the basis of the body weight reduction.

COc1cccc2c1C(=O)c1c(O)c3c(c(O)c1C2=O)C[C@@](O)(C(=O)CO)C[C@@H]3O[C@H]1C[C@H](N2CCO[C@H](OC)C2)[C@H](O)[C@H](C)O1 [Nemorubicin, (8S-cis, 2″S)-7,8,9,10-tetrahydro-6,8,11-trihydroxy-8-(hydroxyacetyl)-1-methoxy-10-{[2,3,6-trideoxy-3-(2-methoxy-4-morpholinyl)-α-L-lyxo-hexopyranosyl]oxy}-5,12-naphthacenedione]
Time to reach 1 g: 18.95 days | T-C: 4.68 days

Bevacizumab: monoclonal antibody directed against the vascular endothelial growth factor (VEGF)
Time to reach 1 g: 21.31 days | T-C: 7.04 days
